{"source": "patent US9249137B2", "about": "“Dicarboximide derivatives of berbamine, the preparation and use thereof” (HANGZHOU BENSHENG PHARMACEUTICAL CO., LTD., priority 2010, dated 2016)", "key": {"[1]": {"system": "human leukemia Jurkat cells", "details": "cited from earlier work"}, "[2]": {"system": "normal human peripheral blood leucocytes", "details": "concentration range 0.5 ug/mL to 10 ug/mL; cited from earlier work"}, "[3]": {"system": "human K562 leukemia cell line (chronic myeloid leukemia, CML)", "assay": "MTT growth inhibition of leukemia cells, 72 hours", "format": "cell-based", "details": "compared with berbamine itself", "excerpt": "(§1) Leukemia cell lines: human K562 leukemia cell line (chronic myeloid leukemia, CML), K562/adr (drug-resistant chronic myeloid leukemia (CML), NB4 (acute promyelocytic leukemia, AML), Kasumi-1 (acute myeloid leukemia M2 type, AML-M2), Jurkat (acute lymphoblastic leukemia, ALL), H9 (acute lymphoblastic leukemia, ALL).\n(§2) Obtaining 6000 well-growing leukemia cells and inoculating them into wells of a 96-well cell culture plate. The culture medium is the 1640 cell culture medium containing 10% fetal bovine serum. After adding of the berbamine derivatives of different concentrations and mixing uniformly, the plate is placed in a carbon dioxide cell incubator (5% CO2) at 37° C. and incubated for 72 hours. Then the viable cell concentration is determined by the MTT method."}, "[4]": {"system": "K562/adr (drug-resistant chronic myeloid leukemia)", "assay": "MTT growth inhibition of leukemia cells, 72 hours", "format": "cell-based, human", "details": "compared with berbamine itself", "excerpt": "as §1, §2"}, "[5]": {"system": "RPMI8226 (multiple myeloma)", "assay": "MTT growth inhibition of multiple myeloma cells, 72 hours", "format": "cell-based, human", "details": "compared with berbamine itself", "description": "Multiple myeloma and lymphoma cell lines: U266 (multiple myeloma), RPMI8226 (multiple myeloma), and DOHH2 (lymphoma).\nas §2, with “aforesaid tumor” for “leukemia”, “adding” for “adding of”"}, "[6]": {"system": "Becap37 (human breast cancer cell)", "assay": "MTT growth inhibition of human solid tumor cells, 72 hours", "format": "cell-based", "details": "compared with berbamine itself", "excerpt": "(§3) Human solid tumor cell lines: HepG2 (human hepatocellular carcinoma, HCC), A549 (human lung cancer), MCF-7 (breast cancer), PANC-1 (pancreatic cancer), PC-3 (prostate cancer), MG63 (osteosarcomas), AGS (gastric cancer), Huh7 (human hepatoma cell), Becap37 (human breast cancer cell), Hela (human cervical cancer cell), RKO (human colon adenocarcinoma cell), SW620 (human colon adenocarcinoma cells), SW480 (human colon cancer cell), MGC 803 (human gastric cancer cell).\nas §2, with “4000” for “6000”, “human solid tumor” for “leukemia”, “DMEM High Glucose” for “the 1640”, “adding” for “adding of”, “method, and the cell viability (%) after drug treatment is calculated. In this experiment, the cell viability of control group (not treated with any compound) is set as 100%.” for “method.”"}, "[7]": {"system": "HepG2 (human hepatocellular carcinoma, HCC)", "assay": "MTT growth inhibition of human solid tumor cells, 72 hours", "format": "cell-based", "details": "compared with berbamine itself", "excerpt": "as §3\nas §2, with “4000” for “6000”, “human solid tumor” for “leukemia”, “DMEM High Glucose” for “the 1640”, “adding” for “adding of”, “method, and the cell viability (%) after drug treatment is calculated. In this experiment, the cell viability of control group (not treated with any compound) is set as 100%.” for “method.”"}, "MCF-7 (breast cancer)": {"system": "MCF-7 (breast cancer)", "assay": "MTT growth inhibition of human solid tumor cells, 72 hours", "format": "cell-based", "details": "compared with berbamine itself", "excerpt": "as §3\nas §2, with “4000” for “6000”, “human solid tumor” for “leukemia”, “DMEM High Glucose” for “the 1640”, “adding” for “adding of”, “method, and the cell viability (%) after drug treatment is calculated. In this experiment, the cell viability of control group (not treated with any compound) is set as 100%.” for “method.”"}, "MG63 (osteosarcomas)": {"system": "MG63 (osteosarcomas)", "assay": "MTT growth inhibition of human solid tumor cells, 72 hours", "format": "cell-based", "details": "compared with berbamine itself", "excerpt": "as §3\nas §2, with “4000” for “6000”, “human solid tumor” for “leukemia”, “DMEM High Glucose” for “the 1640”, “adding” for “adding of”, “method, and the cell viability (%) after drug treatment is calculated. In this experiment, the cell viability of control group (not treated with any compound) is set as 100%.” for “method.”"}, "[8]": {"system": "MGC 803 (human gastric cancer cell)", "assay": "MTT growth inhibition of human solid tumor cells, 72 hours", "format": "cell-based", "details": "compared with berbamine itself", "excerpt": "as §3\nas §2, with “4000” for “6000”, “human solid tumor” for “leukemia”, “DMEM High Glucose” for “the 1640”, “adding” for “adding of”, “method, and the cell viability (%) after drug treatment is calculated. In this experiment, the cell viability of control group (not treated with any compound) is set as 100%.” for “method.”"}, "[9]": {"system": "PANC-1 (pancreatic cancer)", "assay": "MTT growth inhibition of human solid tumor cells, 72 hours", "format": "cell-based", "details": "compared with berbamine itself", "excerpt": "as §3\nas §2, with “4000” for “6000”, “human solid tumor” for “leukemia”, “DMEM High Glucose” for “the 1640”, “adding” for “adding of”, “method, and the cell viability (%) after drug treatment is calculated. In this experiment, the cell viability of control group (not treated with any compound) is set as 100%.” for “method.”"}, "CaM": {"molecular_target": "CaM (Homo sapiens, UniProt P0DP23)", "details": "relative to berbamine; cited from earlier work"}, "[10]": {"system": "red cell membrane CaM-independent Ca^2++Mg^2+ ATPase", "details": "relative to berbamine; cited from earlier work"}}, "note": "Where two headings read alike, the source gives them in different places."}
{"compound": "COc1cc2c3cc1Oc1c(OC)c(OC)cc4c1[C@@H](Cc1ccc(O)c(c1)Oc1ccc(cc1)C[C@@H]3N(C)CC2)N(C)CC4", "note": "[BBM, 6,6′,7-trimethoxy-2,2′-dimethylberbaman-12-ol]", "values": [{"measurement": "cell viability rate", "setting": "[1]; drug concentration 0.5 ug/mL", "value": 93.69, "unit": "%"}, {"measurement": "cell viability rate", "setting": "[1]; drug concentration 10 ug/mL", "value": 14.85, "unit": "%"}, {"measurement": "cytotoxicity on normal human peripheral blood leucocytes", "setting": "[2]", "value": "no obvious cytotoxicity"}]}
{"compound": "COc1cc2c3cc1Oc1c(OC)c(OC)cc4c1[C@@H](Cc1ccc(OCCCCCCCN5C(=O)c6ccccc6C5=O)c(c1)Oc1ccc(cc1)C[C@@H]3N(C)CC2)N(C)CC4", "note": "[BS-BE-003, 12-O-(7-(1,3-dioxo-isoindolin-2-yl)-heptyl)-berbamine]", "values": [{"measurement": "improvement of anti-human K562 chronic myelogenous leukemia activity", "setting": "[3]", "value": "more than 5 fold"}, {"measurement": "improvement of anti-K562/adr (drug-resistant chronic myelogenous leukemia) activity", "setting": "[4]", "value": "more than 6 fold"}, {"measurement": "improvement of anti-RPMI8226 (multiple myeloma) cell activity", "setting": "[5]", "value": "~6", "unit": "fold"}, {"measurement": "improvement of anti-Becap37 (human breast cancer cell) activity", "setting": "[6]", "value": "~5", "unit": "fold"}, {"measurement": "improvement of anti-HepG2 (human hepatocellular carcinoma, HCC) activity", "setting": "[7]", "value": "~5", "unit": "fold"}, {"measurement": "improvement of anti-MCF-7 (breast cancer) activity", "setting": "MCF-7 (breast cancer)", "value": "~6", "unit": "fold"}, {"measurement": "improvement of anti-MG63 (osteosarcomas) activity", "setting": "MG63 (osteosarcomas)", "value": "~8", "unit": "fold"}, {"measurement": "improvement of anti-MGC 803 (human gastric cancer cells) activity", "setting": "[8]", "value": "~7", "unit": "fold"}, {"measurement": "improvement of anti-PANC-1 (pancreatic cancer) activity", "setting": "[9]", "value": "more than 6 fold"}]}
{"compound": "CCOCCCCOc1ccc2cc1Oc1ccc(cc1)C[C@H]1c3cc(c(OC)cc3CCN1C)Oc1c(OC)c(OC)cc3c1[C@@H](C2)N(C)CC3", "note": "[EBB, [O-(4-ethoxy)-butyl]-berbamine]", "values": [{"measurement": "specific coefficient as CaM antagonist, higher than that of berbamine", "setting": "CaM", "value": 6.5, "unit": "fold"}]}
{"compound": "O-Dansyl berbamine [DB]", "values": [{"measurement": "inhibitory activity on red cell membrane CaM-independent Ca^2++Mg^2+ ATPase, stronger than that of berbamine", "setting": "[10]", "value": 25, "unit": "fold"}]}
